Data from article PMC6451745, “Development and dosimetry of ^203Pb/^212Pb-labelled PSMA ligands: bringing “the lead” into PSMA-targeted alpha therapy?” (European Journal of Nuclear Medicine and Molecular Imaging, 2019).
Where “and” joins values, the source holds several entries; their conditions need not be identical. Equal values may be shown once.

Legend:
C4-2 cells = test: Determination of specific internalization ratio; assay type: cell-based; settings: for Specific lysate (specific internalization): ^203Pb-labelled compound 30 nM, 45 min, 2-PMPA blocking subtracted, mean ± SD n = 3
Protocol: In vitro and in vivo experiments were performed using the PSMA-positive C4-2 cell line, a subline of the LNCaP (lymph node carcinoma of the prostate) cell line (CRL-3314; American Type Culture Collection). C4-2 cells were cultivated in RPMI-1640 (PAN Biotech) supplemented with 10% fetal calf serum and stable glutamine (PAN Biotech). Cells were grown at 37 °C and incubated in humidified air equilibrated with 5% CO2.
For determination of the specific internalization ratio, 24-well plates were incubated for 20 min with 0.1% poly-L-lysine in PBS at room temperature and washed once with PBS. In the next step, 1 ml RPMI containing 1 × 10^5 C4-2 cells was added to each well and incubated overnight. The conditions during the experiment for each compound were: incubation at 37 °C or 4 °C with or without receptor blocking via 2-(phosphonomethyl)pentanedioic acid (2-PMPA; Axxora) at a final concentration of 500 μM. The cells were then incubated with 250 μl of a 30 nM solution of ^203Pb-labelled compound. The plates were incubated either for 45 min in a water bath at 37 °C or on ice at 4 °C. The cells were then washed three times with 1 ml ice-cold PBS and incubated with 0.5 ml glycine (50 mM in HCl, pH 2.8) for 5 min. After an additional washing step with 1 ml ice-cold PBS, the cells were lysed with 0.5 ml 0.3 M NaOH and collected, and the radioactivity was measured with a gamma counter for 1 min. The specific cellular uptake was determined as the percentage of initially added radioactivity bound per 10^6 cells (%IA/10^6 cells) by subtraction of the respective uptake under blocking conditions. All experiments were performed in triplicate.

C4-2 tumour-bearing mice = test: Biodistribution (organ distribution) in tumour-bearing mice; assay type: in vivo; settings: 0.025 nmol i.v., C4-2 tumour-bearing mice, n = 3
Protocol: The in vivo experiments were carried out in accordance with the laws on animal welfare of the Federal Republic of Germany. For imaging and biodistribution studies, male BALB/c nu/nu mice (20–25 g; Charles River) bearing C4-2 tumour xenografts were used. The mice were inoculated subcutaneously in the right trunk with 5 × 10^6 C4-2 cells in 50% Matrigel in Opti-MEM (1×). For small-animal imaging the mice were anaesthetized with 2% sevoflurane, and then 0.1 nmol (1.0 MBq) of the respective ^203Pb ligand was injected into a tail vein. Serial planar scans were performed using a Gamma Imager-sct (Biospace Lab, Paris, France) with a parallel collimator (35 mm/1.8 mm/0.2 mm) after 10 min, 1 h, 4 h and 24 h. Based on the imaging results, compound CA012 was chosen for biodistribution studies. Experiments were performed in triplicate. For biodistribution, 0.025 nmol (1 MBq) of labelled compound per mouse was administered by injection into a tail vein. After 10 min, 1 h, 4 h and 24 h the mice were killed, the organs were dissected and weighed, and activity was measured using a gamma counter (Packard Cobra Auto-gamma). The organ uptakes were calculated as the percentage of the injected dose per gram of tissue (%ID/g).

[1] = system: patients with castration-resistant metastasized prostate cancer; test: ^203Pb-CA012 dosimetry from planar whole-body scans in patients (QDOSE/OLINDA); assay type: in vivo, human; settings: diagnostic ^203Pb, two patients, male adult phantom in OLINDA
Protocol: OLINDA calculations were performed for all nuclides individually.

[2] = system: patients with castration-resistant metastasized prostate cancer; test: Dosimetry extrapolated from ^203Pb-CA012 to ^212Pb-CA012
Protocol: Images were loaded into the QDOSE dosimetry software suite (ABX-CRO, Dresden) and coregistered. […] These ROIs were used to determine time–activity curves (TAC) for each organ, tumours and the total body. The first time-point (before voiding) of the uncorrected geometric mean images was used to calibrate the ROI counts in relation to the injected activity. The red marrow TAC was calculated from venous blood (six samples per patient) using established model assumptions [10, 11].
Biexponential curve fitting was applied to all organ TACs (with the exception of a few tumours and glands which had to be fitted monoexponentially). The accumulated activity was integrated assuming a linear increase from time 0 to the first measured time-point, numerically from the first to the last measured time-point using trapezoidal approximations and from the last measured time-point to infinity using the fit function. The activity in the remainder of the body was calculated by subtracting the activity of all source organs from that of the total body.
The residence times in the kidneys, liver, spleen, urinary bladder contents, red marrow and remainder of the body were exported for dose calculations in OLINDA 1.1, using the organ masses of the adult phantom [12].
OLINDA calculations were performed for all nuclides individually. […] Tumour and salivary gland volumes were measured individually based on CT segmentation and their absorbed doses were approximated using a power function interpolating the spherical model estimates [15].

[3] = projected from therapeutic activity of 100 MBq
[4] = therapeutic ^212Pb incl. daughter nuclides, extrapolated from ^203Pb, RBE 5 for alpha, OLINDA male adult phantom

NC(=O)CN1CCN(CC(N)=O)CCN(CC(=O)NCC2CCC(C(=O)NC(Cc3ccc4ccccc4c3)C(=O)NCCCC[C@H](NC(=O)N[C@@H](CCC(=O)O)C(=O)O)C(=O)O)CC2)CCN(CC(N)=O)CC1.[203Pb+2] (stereo partly drawn) [^203Pb-CA012]
specific ligand-induced internalization (C4-2 cells): ~16 %IA/10^6 cells | Specific lysate (specific internalization) (C4-2 cells): 15.6 ± 2.1 %IA/10^6 cells | Organ distribution, Blood (C4-2 tumour-bearing mice; 10 min): 5.37 ± 1.95 % ID/g | Organ distribution, Brain (C4-2 tumour-bearing mice; 10 min): 0.14 ± 0.04 % ID/g | Organ distribution, Heart (C4-2 tumour-bearing mice; 10 min): 1.78 ± 0.66 % ID/g | Organ distribution, Kidneys (C4-2 tumour-bearing mice; 10 min): 26.97 ± 8.74 % ID/g | Organ distribution, Liver (C4-2 tumour-bearing mice; 10 min): 1.25 ± 0.43 % ID/g | Organ distribution, Lung (C4-2 tumour-bearing mice; 10 min): 4.31 ± 1.19 % ID/g | Organ distribution, Muscle (C4-2 tumour-bearing mice; 10 min): 1.20 ± 0.43 % ID/g | Organ distribution, Small intestine (C4-2 tumour-bearing mice; 10 min): 1.75 ± 0.48 % ID/g | Organ distribution, Spleen (C4-2 tumour-bearing mice; 10 min): 1.97 ± 1.07 % ID/g | Organ distribution, Tumor (C4-2 tumour-bearing mice; 10 min): 12.33 ± 1.92 % ID/g | Organ distribution, Blood (C4-2 tumour-bearing mice; 1 h): 0.26 ± 0.10 % ID/g | Organ distribution, Brain (C4-2 tumour-bearing mice; 1 h): 0.02 ± 0.00 % ID/g | Organ distribution, Heart (C4-2 tumour-bearing mice; 1 h): 0.10 ± 0.03 % ID/g | Organ distribution, Kidneys (C4-2 tumour-bearing mice; 1 h): 5.08 ± 2.45 % ID/g | Organ distribution, Liver (C4-2 tumour-bearing mice; 1 h): 0.20 ± 0.10 % ID/g | Organ distribution, Lung (C4-2 tumour-bearing mice; 1 h): 0.33 ± 0.13 % ID/g | Organ distribution, Muscle (C4-2 tumour-bearing mice; 1 h): 0.05 ± 0.03 % ID/g | Organ distribution, Small intestine (C4-2 tumour-bearing mice; 1 h): 0.10 ± 0.04 % ID/g | Organ distribution, Spleen (C4-2 tumour-bearing mice; 1 h): 0.16 ± 0.08 % ID/g | Organ distribution, Tumor (C4-2 tumour-bearing mice; 1 h, listed as 203Pb-PSMA-CA012): 8.4 ± 3.7 % ID/g and 8.37 ± 3.67 % ID/g | Organ distribution, Blood (C4-2 tumour-bearing mice; 4 h): 0.05 ± 0.01 % ID/g | Organ distribution, Brain (C4-2 tumour-bearing mice; 4 h): 0.02 ± 0.01 % ID/g | Organ distribution, Heart (C4-2 tumour-bearing mice; 4 h): 0.04 ± 0.02 % ID/g | Organ distribution, Kidneys (C4-2 tumour-bearing mice; 4 h): 1.61 ± 0.28 % ID/g | Organ distribution, Liver (C4-2 tumour-bearing mice; 4 h): 0.09 ± 0.01 % ID/g | Organ distribution, Lung (C4-2 tumour-bearing mice; 4 h): 0.10 ±0.03 % ID/g | Organ distribution, Muscle (C4-2 tumour-bearing mice; 4 h): 0.06 ± 0.03 % ID/g | Organ distribution, Small intestine (C4-2 tumour-bearing mice; 4 h): 0.07 ± 0.05 % ID/g | Organ distribution, Spleen (C4-2 tumour-bearing mice; 4 h): 0.07 ± 0.01 % ID/g | Organ distribution, Tumor (C4-2 tumour-bearing mice; 4 h): 7.81 ±0.86 % ID/g | Organ distribution, Blood (C4-2 tumour-bearing mice; 24 h): 0.03 ± 0.00 % ID/g | Organ distribution, Brain (C4-2 tumour-bearing mice; 24 h): 0.01 ± 0.00 % ID/g | Organ distribution, Heart (C4-2 tumour-bearing mice; 24 h): 0.02 ± 0.00 % ID/g | Organ distribution, Kidneys (C4-2 tumour-bearing mice; 24 h): 0.89 ± 0.14 % ID/g | Organ distribution, Liver (C4-2 tumour-bearing mice; 24 h): 0.10 ± 0.02 % ID/g | Organ distribution, Lung (C4-2 tumour-bearing mice; 24 h): 0.05 ± 0.01 % ID/g | Organ distribution, Muscle (C4-2 tumour-bearing mice; 24 h): 0.02 ± 0.00 % ID/g | Organ distribution, Small intestine (C4-2 tumour-bearing mice; 24 h): 0.02 ± 0.00 % ID/g | Organ distribution, Spleen (C4-2 tumour-bearing mice; 24 h): 0.07 ± 0.02 % ID/g | Organ distribution, Tumor (C4-2 tumour-bearing mice; 24 h): 3.30 ± 1.60 % ID/g | Effective dose [1]: 2.4 mSv/100 MBq | Effective dose equivalent [1]: 3.6 mSv/100 MBq | Equivalent dose, Adrenals [1]: 2.8 mSv/100 MBq | Equivalent dose, Brain [1]: 1.2 mSv/100 MBq | Equivalent dose, Breasts [1]: 1.1 mSv/100 MBq | Equivalent dose, Gallbladder [1]: 2.8 mSv/100 MBq | Equivalent dose, Heart [1]: 1.8 mSv/100 MBq | Equivalent dose, Kidneys [1]: 18.1 mSv/100 MBq | Equivalent dose, Liver [1]: 4.3 mSv/100 MBq | Equivalent dose, Lower large intestine [1]: 2.0 mSv/100 MBq | Equivalent dose, Lungs [1]: 1.6 mSv/100 MBq | Equivalent dose, Muscle [1]: 1.5 mSv/100 MBq | Equivalent dose, Osteogenic cells [1]: 3.7 mSv/100 MBq | Equivalent dose, Pancreas [1]: 2.8 mSv/100 MBq | Equivalent dose, Red marrow [1]: 1.8 mSv/100 MBq | Equivalent dose, Skin [1]: 1.0 mSv/100 MBq | Equivalent dose, Small intestine [1]: 2.1 mSv/100 MBq | Equivalent dose, Spleen [1]: 6.7 mSv/100 MBq | Equivalent dose, Stomach [1]: 2.0 mSv/100 MBq | Equivalent dose, Testes [1]: 1.4 mSv/100 MBq | Equivalent dose, Thymus [1]: 1.4 mSv/100 MBq | Equivalent dose, Thyroid [1]: 1.4 mSv/100 MBq | Equivalent dose, Total body [1]: 1.7 mSv/100 MBq | Equivalent dose, Upper large intestine [1]: 2.1 mSv/100 MBq | Equivalent dose, Urinary bladder [1]: 6.7 mSv/100 MBq

NC(=O)CN1CCN(CC(N)=O)CCN(CC(=O)NC[C@H]2CC[C@H](C(=O)N[C@@H](Cc3ccc4ccccc4c3)C(=O)NCCCC[C@H](NC(=O)N[C@@H](CCC(=O)O)C(=O)O)C(=O)O)CC2)CCN(CC(N)=O)CC1.[212Pb+2] [^212Pb-CA012]
cumulative dose limited by the kidneys (dose-limiting organ) ([2]; preliminary approximation): 400–600 MBq | Equivalent dose, Liver [2, 3]: 0.7 SvRBE5 | Equivalent dose, other organs [2, 3]: 0.2 SvRBE5 | Tissue equivalent dose, Kidneys [2, 3]: 4.9 SvRBE5 | Tissue equivalent dose, Red marrow ([2]; projected from therapeutic activity of 100 MBq, instant decay of daughter nuclides assumed): 0.6 SvRBE5 | Effective dose [2, 4]: 415.1 mSv RBE5/100 Mbq | Effective dose equivalent [2, 4]: 748.9 mSv RBE5/100 Mbq | Equivalent dose, Adrenals [2, 4]: 193.1 mSv RBE5/100 Mbq | Equivalent dose, Brain [2, 4]: 190.0 mSv RBE5/100 Mbq | Equivalent dose, Breasts [2, 4]: 190.0 mSv RBE5/100 Mbq | Equivalent dose, Gallbladder [2, 4]: 192.9 mSv RBE5/100 Mbq | Equivalent dose, Heart [2, 4]: 191.3 mSv RBE5/100 Mbq | Equivalent dose, Kidneys [2, 4]: 4906.6 mSv RBE5/100 Mbq | Equivalent dose, Liver [2, 4]: 703.3 mSv RBE5/100 Mbq | Equivalent dose, Lower large intestine [2, 4]: 191.3 mSv RBE5/100 Mbq | Equivalent dose, Lungs [2, 4]: 190.9 mSv RBE5/100 Mbq | Equivalent dose, Muscle [2, 4]: 190.7 mSv RBE5/100 Mbq | Equivalent dose, Osteogenic cells [2, 4]: 3796.4 mSv RBE5/100 Mbq | Equivalent dose, Pancreas [2, 4]: 192.9 mSv RBE5/100 Mbq | Equivalent dose, Red marrow [2, 4]: 615.1 mSv RBE5/100 Mbq | Equivalent dose, Skin [2, 4]: 189.8 mSv RBE5/100 Mbq | Equivalent dose, Small intestine [2, 4]: 191.8 mSv RBE5/100 Mbq | Equivalent dose, Spleen [2, 4]: 1606.7 mSv RBE5/100 Mbq | Equivalent dose, Stomach [2, 4]: 191.8 mSv RBE5/100 Mbq | Equivalent dose, Testes [2, 4]: 190.4 mSv RBE5/100 Mbq | Equivalent dose, Thymus [2, 4]: 190.7 mSv RBE5/100 Mbq | Equivalent dose, Thyroid [2, 4]: 190.5 mSv RBE5/100 Mbq | Equivalent dose, Total body [2, 4]: 237.8 mSv RBE5/100 Mbq | Equivalent dose, Upper large intestine [2, 4]: 191.8 mSv RBE5/100 Mbq | Equivalent dose, Urinary bladder [2, 4]: 200.2 mSv RBE5/100 Mbq

NC(=O)CN1CCN(CC(N)=O)CCN(CC(N)=O)C(Cc2ccc(NC(=S)NCC3CCC(C(=O)NC(Cc4ccc5ccccc5c4)C(=O)NCCCC[C@H](NC(=O)N[C@@H](CCC(=O)O)C(=O)O)C(=O)O)CC3)cc2)CN(CC(N)=O)CC1.[203Pb+2] (stereo partly drawn) [^203Pb-CA009]
specific ligand-induced internalization (C4-2 cells): approximately 27 %ID/10^6 cells | Specific lysate (specific internalization) (C4-2 cells): 27.4 ± 2.4 %IA/10^6 cells
